Laboratory results reported in ChEMBL document CHEMBL1142260, “Acylguanidine inhibitors of beta-secretase: optimization of the pyrrole ring substituents extending into the S1' substrate binding pocket” (Bioorg Med Chem Lett, 2008).

Key:
Beta-secretase 1 [1] = target: T1, Beta-secretase 1 (Homo sapiens, UniProt P56817); assay: Inhibition of BACE1
CHO = assay: Cytotoxicity against human CHO cells; type: functional; conditions: Cricetulus griseus, read-out: LD50 (the source's name)
[2] = Selectivity for BACE1 over cathepsin D
Beta-secretase 1 [3] = target: T1, Beta-secretase 1; conditions: CHO
Cathepsin D = Cathepsin D (Homo sapiens, UniProt P07339); assay: Inhibition of cathepsin D
Beta-secretase 1 [4] = target: T1, Beta-secretase 1; assay: Inhibition of BACE1 at 2 uM

T1 sequence (P56817 whole entry): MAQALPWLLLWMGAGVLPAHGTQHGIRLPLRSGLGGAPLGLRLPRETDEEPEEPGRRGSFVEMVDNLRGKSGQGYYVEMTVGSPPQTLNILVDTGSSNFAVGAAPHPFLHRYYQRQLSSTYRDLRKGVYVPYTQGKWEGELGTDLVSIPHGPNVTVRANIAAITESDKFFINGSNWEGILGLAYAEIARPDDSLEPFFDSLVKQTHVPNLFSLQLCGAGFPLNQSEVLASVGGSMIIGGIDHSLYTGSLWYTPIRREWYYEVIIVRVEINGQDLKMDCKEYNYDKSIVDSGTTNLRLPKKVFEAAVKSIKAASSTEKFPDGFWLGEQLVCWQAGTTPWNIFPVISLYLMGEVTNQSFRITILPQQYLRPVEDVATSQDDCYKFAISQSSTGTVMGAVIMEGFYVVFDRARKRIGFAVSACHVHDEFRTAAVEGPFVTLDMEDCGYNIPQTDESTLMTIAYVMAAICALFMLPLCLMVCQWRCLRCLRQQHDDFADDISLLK
Cathepsin D, sequence (P07339 65-162 limits assumed): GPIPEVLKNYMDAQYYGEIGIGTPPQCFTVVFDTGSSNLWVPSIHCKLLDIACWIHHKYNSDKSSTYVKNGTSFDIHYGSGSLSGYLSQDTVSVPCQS
Cathepsin D, sequence (P07339 169-412 limits assumed): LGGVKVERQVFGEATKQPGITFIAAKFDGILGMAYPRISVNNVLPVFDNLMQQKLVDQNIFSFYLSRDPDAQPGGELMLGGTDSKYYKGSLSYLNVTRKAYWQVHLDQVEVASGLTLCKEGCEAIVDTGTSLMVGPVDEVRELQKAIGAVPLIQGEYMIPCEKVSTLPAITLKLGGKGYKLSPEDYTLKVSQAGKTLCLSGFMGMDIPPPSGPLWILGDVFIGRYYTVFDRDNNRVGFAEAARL

| Compound | IC50 (Beta-secretase 1 [1]) [µM] | CC50 (CHO) [µM] | Ratio IC50 [2] | ED50 (Beta-secretase 1 [3]) [µM] | IC50 (Cathepsin D) [µM] | inhibition (Beta-secretase 1 [4]) [%] |
| --- | --- | --- | --- | --- | --- | --- |
| CCCOc1ccc(-c2ccc(-c3ccccc3Cl)n2CC(=O)NC(=N)NCCC(=O)O)cc1 | 0.278 | – | – | – | – | – |
| N/C(=N/C(=O)Cn1c(-c2ccccc2)ccc1C12CC3CC(CC(C3)C1)C2)NCc1cccc(N)c1 | – | 8 | 1.9 | 4.81 | – | – |
| N=C(NCC(O)CO)NC(=O)Cn1c(-c2ccccc2)ccc1C12CC3CC(CC(C3)C1)C2 (centres undefined) | 0.536 | – | – | – | 73.5 | – |
| N/C(=N\C(=O)Cn1c(-c2ccccc2)ccc1C12CC3CC(CC(C3)C1)C2)NCCCCO | 0.255 | – | – | – | 6.45 | – |
| N=C(NCCCn1ccnc1)NC(=O)Cn1c(-c2ccccc2)ccc1C12CC3CC(CC(C3)C1)C2 | 1.71 | – | – | – | > 25 | – |
| CCCOc1ccc(-c2ccc(-c3ccccc3Cl)n2CC(=O)/N=C(/N)NCCCSC)cc1 | 0.321 | – | 3.9 | 1.23 | – | – |
| CCCOc1ccc(-c2ccc(-c3ccccc3Cl)n2CC(=O)/N=C(/N)NCc2ccc(F)c(F)c2F)cc1 | – | – | 0.5 | 5.27 | – | – |
| N/C(=N/C(=O)Cn1c(-c2ccccc2)ccc1C12CC3CC(CC(C3)C1)C2)NCCCCO | – | 31 | 25 | 4.15 | – | – |
| C[C@H](O)CNC(=N)NC(=O)Cn1c(-c2ccccc2)ccc1C12CC3CC(CC(C3)C1)C2 | 0.942 | – | – | – | 54.1 | – |
| N/C(=N/C(=O)Cn1c(-c2ccccc2)ccc1C12CC3CC(CC(C3)C1)C2)NCC(O)CO (centres undefined) | – | 88 | 137 | 21.1 | – | – |
| NC(N)=NC(=O)Cn1c(-c2ccccc2)ccc1C12CC3CC(CC(C3)C1)C2 | – | > 25 | 69 | 8.9 | 25 | – |
| C[C@H](O)CN/C(N)=N\C(=O)Cn1c(-c2ccccc2)ccc1C12CC3CC(CC(C3)C1)C2 | – | 100 | 57 | 17.8 | – | – |
| N/C(=N/C(=O)Cn1c(-c2ccccc2)ccc1C12CC3CC(CC(C3)C1)C2)NC1CCCCC1 | – | 50 | 7.5 | 18.7 | – | – |
| CCCOc1ccc(-c2ccc(-c3ccccc3Cl)n2CC(=O)NC(=N)NCCCO)cc1 | 0.121 | – | – | – | – | – |
| N/C(=N/C(=O)Cn1c(-c2ccccc2)ccc1C12CC3CC(CC(C3)C1)C2)NCCO | 0.68 | 25 | 36 | 3.62 | 24.7 | – |
| CCCOc1ccc(-c2ccc(-c3ccccc3Cl)n2CC(=O)/N=C(/N)NCCC(N)=O)cc1 | – | – | 55 | – | – | – |
| N/C(=N/C(=O)Cn1c(-c2ccccc2)ccc1C12CC3CC(CC(C3)C1)C2)NCCCn1ccnc1 | – | 45 | > 15 | 9.16 | – | – |
| N#CCCCNC(=N)NC(=O)Cn1c(-c2ccccc2)ccc1C12CC3CC(CC(C3)C1)C2 | 0.255 | – | – | – | 4.25 | – |
| CCCOc1ccc(-c2ccc(-c3ccccc3Cl)n2CC(=O)NC(=N)NCCC(N)=O)cc1 | 0.172 | – | – | – | – | – |
| N/C(=N\C(=O)Cn1c(-c2ccccc2)ccc1-c1ccccc1)NCc1ccc(F)c(F)c1F | – | – | – | – | – | 43 |
| Cc1nnc(CN/C(N)=N\C(=O)Cn2c(-c3ccccc3)ccc2C23CC4CC(CC(C4)C2)C3)o1 | – | 22 | – | 9.48 | 3.01 | – |
| Cc1csc(CN/C(N)=N\C(=O)Cn2c(-c3ccccc3)ccc2C23CC4CC(CC(C4)C2)C3)n1 | – | 8 | – | 3.97 | – | – |
| CCCOc1ccc(-c2ccc(-c3ccccc3Cl)n2CC(=O)/N=C(/N)NCC(O)CO)cc1 (centres undefined) | 0.124 | – | 81 | 5.27 | – | – |
| N/C(=N/C(=O)Cn1c(-c2ccccc2)ccc1C12CC3CC(CC(C3)C1)C2)NCCCO | – | 35 | 83 | 1.84 | 19.9 | – |

| Compound | IC50 (Beta-secretase 1 [1]) [µM] | CC50 (CHO) [µM] | Ratio IC50 [2] | ED50 (Beta-secretase 1 [3]) [µM] | IC50 (Cathepsin D) [µM] | inhibition (Beta-secretase 1 [4]) [%] |
| --- | --- | --- | --- | --- | --- | --- |
| Cc1csc(CNC(=N)NC(=O)Cn2c(-c3ccccc3)ccc2C23CC4CC(CC(C4)C2)C3)n1 | – | – | – | – | 0.144 | – |
| N=C(NCCc1ccsc1)NC(=O)Cn1c(-c2ccccc2)ccc1C12CC3CC(CC(C3)C1)C2 | – | – | – | – | 0.599 | – |
| N=C(NCc1cccc(N)c1)NC(=O)Cn1c(-c2ccccc2)ccc1C12CC3CC(CC(C3)C1)C2 | 0.744 | – | – | – | 1.38 | – |
| CCCOc1ccc(-c2ccc(-c3ccccc3Cl)n2CC(=O)/N=C(/N)NCCCC(=O)O)cc1 | 0.13 | – | 45 | – | – | – |
| CCCOc1ccc(-c2ccc(-c3ccccc3Cl)n2CC(=O)/N=C(/N)NCCC(=O)O)cc1 | – | – | > 45 | – | – | – |
| CCCOc1ccc(-c2ccc(-c3ccccc3Cl)n2CC(=O)/N=C(/N)NCc2ccco2)cc1 | – | – | 2.5 | 9.1 | – | – |
| CCCOc1ccc(-c2ccc(-c3ccccc3Cl)n2CC(=O)/N=C(/N)NCc2cccs2)cc1 | 0.752 | – | 0.7 | 10.7 | – | – |
| CCCOc1ccc(-c2ccc(-c3ccccc3Cl)n2CC(=O)NC(=N)NCc2ccc(F)c(F)c2F)cc1 | 0.203 | – | – | – | – | – |
| N/C(=N/C(=O)Cn1c(-c2ccccc2)ccc1C12CC3CC(CC(C3)C1)C2)NCCc1cccs1 | – | 3 | – | 2 | 0.476 | – |
| CCCOc1ccc(-c2ccc(-c3ccccc3Cl)n2CC(=O)/N=C(/N)NCCC2OCCO2)cc1 | 0.269 | – | 13 | 1.34 | – | – |
| C[C@@H](O)CN/C(N)=N\C(=O)Cn1c(-c2ccccc2)ccc1C12CC3CC(CC(C3)C1)C2 | 0.437 | 79 | 28 | 9.51 | 12.5 | – |
| CCCOc1ccc(-c2ccc(-c3ccccc3Cl)n2CC(=O)/N=C(/N)NCC(C)(C)CO)cc1 | 0.203 | – | 15 | 5.27 | – | – |
| N#CCCN/C(N)=N\C(=O)Cn1c(-c2ccccc2)ccc1C12CC3CC(CC(C3)C1)C2 | 0.31 | 16 | 39 | 3.44 | 12.2 | – |
| CCCOc1ccc(-c2ccc(-c3ccccc3Cl)n2CC(=O)/N=C(/N)NCCCn2ccnc2)cc1 | 0.241 | – | 30 | 3.1 | – | – |
| CCCOc1ccc(-c2ccc(-c3ccccc3Cl)n2CC(=O)/N=C(/N)N[C@H]2CC[C@H](O)CC2)cc1 | 0.125 | – | 110 | 1.28 | – | – |
| N=C(NC(=O)Cn1c(-c2ccccc2)ccc1C12CC3CC(CC(C3)C1)C2)NC1CCCCC1 | 7.2 | – | – | – | 54.2 | – |
| CCCOc1ccc(-c2ccc(-c3ccccc3Cl)n2CC(=O)/N=C(/N)NCCCC(N)=O)cc1 | 0.137 | – | 70 | 4.14 | – | – |
| CCCOc1ccc(-c2ccc(-c3ccccc3Cl)n2CC(=O)NC(=N)NCc2ccco2)cc1 | 0.558 | – | – | – | – | – |
| N#CCCCN/C(N)=N\C(=O)Cn1c(-c2ccccc2)ccc1C12CC3CC(CC(C3)C1)C2 | – | 59 | 17 | 4.4 | – | – |
| CCCOc1ccc(-c2ccc(-c3ccccc3Cl)n2CC(=O)/N=C(/N)N[C@H]2CC[C@H](C(=O)O)CC2)cc1 | 0.078 | – | 7.3 | 10.4 | – | – |
| CCCOc1ccc(-c2ccc(-c3ccccc3Cl)n2CC(=O)/N=C(/N)NCCCO)cc1 | – | – | 85 | 1.18 | – | – |
| CCCOc1ccc(-c2ccc(-c3ccccc3Cl)n2CC(=O)/N=C(/N)NCc2ccc(O)c(OC)c2)cc1 | 0.651 | – | 1 | 5.45 | – | – |
| N/C(=N/C(=O)Cn1c(-c2ccccc2)ccc1C12CC3CC(CC(C3)C1)C2)N[C@H]1CC[C@H](O)CC1 | 0.283 | 14 | – | 1.44 | – | – |
| N/C(=N/C(=O)Cn1c(-c2ccccc2)ccc1C12CC3CC(CC(C3)C1)C2)NCCc1ccsc1 | – | 2 | – | 1.69 | – | – |
